Results on one compound are retold here after EP0298466A2, “Substituted alkene carboxylic acid amides and derivatives” (F. HOFFMANN-LA ROCHE AG, priority 1987, dated 1989).

In this assay the target is T1, Thromboxane Synthase (TXA₂ syn.) (Homo sapiens, UniProt P24557).
T1 construct: using microsomal fractions from human platelets as enzyme source; from tissue; host or cells: microsomal fraction of human platelets
T1 sequence (P24557 1-533): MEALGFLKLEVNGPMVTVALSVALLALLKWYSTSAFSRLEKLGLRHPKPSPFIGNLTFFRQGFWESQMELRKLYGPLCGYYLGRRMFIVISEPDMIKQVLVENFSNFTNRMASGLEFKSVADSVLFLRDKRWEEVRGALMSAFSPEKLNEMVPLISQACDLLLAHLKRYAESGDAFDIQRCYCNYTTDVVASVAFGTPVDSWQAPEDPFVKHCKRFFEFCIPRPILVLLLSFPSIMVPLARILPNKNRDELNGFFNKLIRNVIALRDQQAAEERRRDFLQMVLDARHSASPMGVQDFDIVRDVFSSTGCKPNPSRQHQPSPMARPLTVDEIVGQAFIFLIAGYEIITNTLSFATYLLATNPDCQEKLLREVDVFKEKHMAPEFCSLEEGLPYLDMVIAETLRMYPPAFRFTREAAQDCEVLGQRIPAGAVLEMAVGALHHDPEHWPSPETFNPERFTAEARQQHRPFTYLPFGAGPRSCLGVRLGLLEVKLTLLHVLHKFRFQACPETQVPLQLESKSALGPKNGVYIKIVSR
As to the kind of experiment: TXA₂ Synthesis Inhibition (microsomal fractions from human platelets). It is filed as biochemical. To be noted: human platelet microsomes, ¹⁴C-PGH₂ 10µM, 22° for 2 minutes; read-out: Inhibition of TXA₂ Synthetase IC₅₀. As for the experimental part:
Thromboxane Synthase (TXA₂ syn.) inhibitory activity is measured by following the conversion of […] using microsomal fractions from human platelets as enzyme source. In the aqueous incubation medium, the TXA₂ decomposes rapidly into TXB₂. The amount of TXA₂ syn, is adjusted so that under the conditions of the assay approximately 80-90% of the substrate, PGH₂, is converted to product in control tubes. To prepare ¹⁴C-PGH₂, ¹⁴C-AA(50-60mCi/mmole) is incubated with sheep seminal vesicular gland microsomes for 1.5 min, at 37° and then the ¹⁴C-PGH₂ is extracted with diethylether, purified on columns of Sephadex LH-20 or silicic acid, and stored in acetone at -70°C. Incubations are done as follows, Sufficient ¹⁴C-PGH₂ to yield a final substrate concentration of 10µM (about 30,000 cpm) is added to the incubation tubes and then the acetone is removed under nitrogen. The tubes are placed in an ice bath and then 215 µl of ice cold phosphate buffered saline, 10 µl of ethanol (control) or of test drug in ethanol and 25 µl of the microsomal suspension are added with mixing in that order as rapidly as possible. The tubes are incubated at 22° for 2 minutes, the reaction is stopped and then the radioactive products and the unconverted PGH₂ are extracted and analyzed by thin layer chromatography. The amount of ¹⁴C-PGH₂ converted to products is analyzed by thin layer chromatography. The amount of ¹⁴C-PGH₂ converted to products was used as a measure of TXA₂ synthase activity. Inhibitors were tested initially at a concentration of 100 µM. IC₅₀ values were calculated by linear regression analysis of successive 10 fold dilutions of the test compound concentration.

Molecules are shown by their SMILES.

Take `O=C(CCCCCCC=C(c1ccccc1)c1ccccc1)NCCCCc1cccnc1` [9,9-Diphenyl-N-[4-(3-pyridinyl)butyl]-8-nonenamide]: the IC50 was 10 to 100 nM.
